Reference: patent US20180044306A1, “1,3,4-THIADIAZOL-2-YL-BENZAMIDE DERIVATIVES AS INHIBITORS OF THE WNT SIGNALLING PATHWAY” (Bayer Pharma Aktiengesellschaft, priority 2015, published 2018)

Legend:
[1] = tested on: constitutive active colorectal cancer cell (CRC) Wnt pathway (HCT116-TOP); assay: Cellular reporter assay, HCT116 Super TopFlash (TOP), constitutive active Wnt pathway; format: cell-based; conditions: Homo sapiens, HCT-116; HCT116 Super TopFlash reporter cells, luciferase expression, 36 hours incubation, dilution series 50 μM to 15 nM
Description: In order to discover and characterize small molecules which inhibit the constitutive active colorectal cancer cell (CRC) Wnt pathway, a cellular reporter assay was employed. The corresponding assay cell was generated by transfection of the colorectal cancer cell line HCT116 (ATCC, #CCL-247) with the Super TopFlash vector (Morin, Science 275, 1997, 1787-1790; Molenaar et al., Cell 86 (3), 1996, 391-399). The HCT116 cell line is cultivated at 37° C. and 5% CO2 in DMEM/F-12 (Life Technologies, #11320-074), supplemented with 2 mM glutamine, 20 mM HEPES, 1.4 mM pyruvate, 0.15% Na-bicarbonate and 10% foetal bovine serum (GIBCO, #10270), this cancer cell line is pathophysiological relevant since it carries a deletion of position S45 in the β-catenin gene, leading to constitutive active Wnt signaling. Stable transfectants were generated by cotransfection with pcDNA3 and selection of stable transfected cells with 1 mg/ml G418.
(§1) In preparation of the assay, the two cell lines were plated 24 hours before at 10000 cells per well of a 384 micro titre plate (MTP) in 30 μL growth medium. Selective inhibitory activity for small molecules on the mutated Wnt pathway was determined after parallel incubation of both (TOP and FOP) HCT116 reporter cell lines with a compound dilution series from 50 μM to 15 nM in steps of 3.16-fold dilutions in CAFTY buffer (130 mM NaCI, 5 mM KCI, 20 mM HEPES, 1 mM MgCl2, 5 mM NaHCO3, pH 7.4) containing 2 mM Ca^2+ and 0.01% BSA. The compounds were thereby serially prediluted in 100% DMSO and thereafter in addition 50 fold into the CAFTY compound dilution buffer (described above). From this dilution 10 μL were added to the cells in 30 μL growth medium and incubated for 36 hours at 37° C. and 5% CO2. Thereafter luciferase assay buffer (1:1 mixture of luciferase substrate buffer (20 mM Tricine, 2.67 mM MgSO4, 0.1 mM EDTA, 4 mM DTT, 270 μM Coenzyme A, 470 μM Luciferin, 530 μM ATP, ph adjusted to pH 7.8 with a sufficient volume of 5M NaOH) and Triton buffer (30 mL Triton X-100, 115 mL glycerol, 308 mg Dithiothreitol, 4.45 g Na2HPO4. 2 H2O, 3.03 g TRIS HCl, ad 1I H2O, pH 7.8) was added as equal volume to the compound solution on the cells to determine luciferase expression as a measure of Wnt signaling activity in a luminometer.

[2] = tested on: HCT116-FOP; assay: Control reporter assay, HCT116 cells with FOP control vector (non-functional TCF elements); format: cell-based; conditions: Homo sapiens, HCT-116, luciferase expression, 36 hours incubation, dilution series 50 μM to 15 nM, read-out: HCT116-FOP IC50 [M] mol/L]
Description: In a parallel approach, HCT116 cells were cotransfected with the FOP control vector and pcDNA3. The FOP vector is identical to the TOP construct, but it contains instead of functional TCF elements a randomized, non-functional sequence. For this transfection a stable transfected cell line was generated as well.
as §1

Structure (SMILES)	IC50 [1] [µM]	IC50 [2] [M]
CC(=O)N1CCN(c2nnc(NC(=O)c3ccc(OC(F)(F)F)c(NC(=O)CN4CCN(C)CC4)c3)s2)CC1 [Example 18, N-[5-(4-acetylpiperazin-1-yl)-1,3,4-thiadiazol-2-yl]-3-{[(4-methylpiperazin-1-yl)-acetyl]amino}-4-(trifluoromethoxy)benzamide]	3.15	≥ 5e-05
CC1CCN(c2nnc(NC(=O)c3ccc(OC(F)(F)F)c(NC(=O)CN4CCOCC4)c3)s2)CC1 [Example 25, N-[5-(4-methylpiperidin-1-yl)-1,3,4-thiadiazol-2-yl]-3-[(morpholin-4-ylacetyl)-amino]-4-(trifluoromethoxy)-benzamide]	13	≥ 5e-05
CN1CCN(CC(=O)Nc2cc(C(=O)Nc3nnc(C4CCCCC4)s3)ccc2OC(F)(F)F)CC1 [Example 5, N-(5-cyclohexyl-1,3,4-thiadiazol-2-yl)-3-{[(4-methylpiperazin-1-yl)pacetyl]amino}-4-(trifluoromethoxy)benzamide]	0.27	≥ 5e-05
CN1CCN(CC(=O)Nc2cc(C(=O)Nc3nnc(N4CCC(O)CC4)s3)ccc2OC(F)(F)F)CC1 [Example 14, N-[5-(4-hydroxypiperidin-1-yl)-1,3,4-thiadiazol-2-yl]-3-{[(4-methylpiperazin-1-yl)acetyl]amino}-4-(trifluoromethoxy)benzamide]	1.45	≥ 5e-05
CCOC(=O)N1CCN(c2nnc(NC(=O)c3ccc(OC(F)(F)F)c(NC(=O)CN4CCOCC4)c3)s2)CC1 [Example 13, ethyl 4-[5-({3-[(morpholin-4-yl-acetyl)amino]-4-(trifluoromethoxy)benzoyl}-amino)-1,3,4-thiadiazol-2-yl]piperazine-1-carboxylate]	1.4	≥ 5e-05
CC(C)(O)C1CCN(c2nnc(NC(=O)c3ccc(OC(F)(F)F)c(NC(=O)CN4CCOCC4)c3)s2)CC1 [Example 10]	0.84	≥ 5e-05
O=C(CN1CCOCC1)Nc1cc(C(=O)Nc2nnc(N3CCC(O)CC3)s2)ccc1OC(F)(F)F [Example 29, N-[5-(4-hydroxypiperidin-1-yl)-1,3,4-thiadiazol-2-yl]-3-[(morpholin-4-ylacetyl)-amino]-4-(trifluoromethoxy)-benzamide]	26.8	≥ 5e-05
COC(=O)N1CCN(c2nnc(NC(=O)c3ccc(OC(F)(F)F)c(NC(=O)CN4CCOCC4)c3)s2)CC1 [Example 24, methyl 4-[5-({3-[(morpholin-4-ylacetyl)amino]-4-(trifluoromethoxy)benzoyl}-amino)-1,3,4-thiadiazol-2-yl]piperazine-1-carboxylate]	4.6	≥ 5e-05
COC(=O)C1CCN(c2nnc(NC(=O)c3ccc(OC(F)(F)F)c(NC(=O)CN4CCN(C)CC4)c3)s2)CC1 [Example 22, methyl 1-(5-{[3-{[(4-methyl-piperazin-1-yl)acetyl]amino}-4-(trifluoromethoxy)benzoyl]-amino}-1,3,4-thiadiazol-2-yl)-piperidine-4-carboxylate]	4.3	≥ 5e-05
O=C(CN1CCOCC1)Nc1cc(C(=O)Nc2nnc(N3CCCCC3)s2)ccc1OC(F)(F)F [Example 31, 3-[(morpholin-4-ylacetyl)-amino]-N-[5-(piperidin-1-yl)-1,3,4-thiadiazol-2-yl]-4-(trifluoromethoxy)benzamide]	34.1	≥ 5e-05
